Assay results taken from patent publication US12440475B2, “Hodgkin lymphoma therapy” (priority 2016, dated 2025).

What was measured:
[1] = test system: Hodgkin lymphoma cell lines; experiment: Mitotic index and metaphases after EDO-S101 treatment, all cell lines; format: cell-based, human
Method: The mitotic index and chromosomal aberrations for each of the cell lines were evaluated after treatment with either 20 μmol or 10 μmol EDO-S101 in DMSO. Each cell line was cultured at 37° C. in the presence of RPMI 1640 supplemented with 10% FCS and antibiotics. Colcemid (0.1 ug/ml) was added 2 h before harvesting and slides with chromosomes in metaphase were prepared following the standard methanol/acetic acid (3/1, v/v) procedure. The slides were stored at −20° C. until use.
FISH was performed using a combination of standard procedures from the recommended protocols for chromosome analysis, following telomere and centromere staining, using PNA probes. In all, 100 metaphases were scored per in vitro dose exposure.
The mitotic index was determined by measurement of the sum of all cells in prophase, metaphase, anaphase and telophase divided by the total number of cells.

[2] = test system: L1236-R100; experiment: Viable cell count and IC50, bendamustine-resistant cell line; format: cell-based, human
Method: (§1) • (a) Five Hodgkin lymphoma cell lines (KMH2, HDML2, L540, L1236 and L426) were cultured separately in the presence of bendamustine, vorinostat and EDO-S101 dissolved in DMSO at 37° C. L1236-derived Hodgkin lymphoma cell lines were selected as they have an acquired stable resistance to bendamustine (R100) or an ability to display continuous growth upon extended exposure to sub-lethal concentrations of bendamustine (R25, R50 and R75). A detailed description of the L1236-R Hodgkin lymphoma cell lines is disclosed in De Filippi et al, ASH 2015, Abstract. #2479. In these tests, the L1236-100R bendamustine resistant strain was used. […] Control cells were cultured in the same final concentration of DMSO. The number of viable cells was assessed at 24, 48 and 72 hours through a Countess™ automated cell counter (Invitrogen), each experiment being repeated three times and the results given being the mean of the three results±SD.

[3] = test system: L1236-R100, L1236/DMSO and L1236; experiment: Viable cell count and IC50, three L1236 cell lines; format: cell-based; conditions: Homo sapiens, L-1236; all cell lines tested, including R100
Method: as §1

[4] = test system: L540; experiment: Apoptosis by annexin V-FITC and Hoechst double staining, L540; format: cell-based, human; conditions: 5 μM, 24 h and 48 h
Method: This assay was performed on 7 cell lines (HDLM2 was excluded due to the low number of available cells) at 24 h and 48 h following EDO-S101 treatment (5 μM, DMSO). Control cells were cultured in the same final concentration of DMSO. Only viable cells (using Hoechst staining) were focused on, and all necrotic cells were excluded. Apoptosis was determined using annexin V-FITC and Hoechst (33342) double staining according to the manufacturer's instructions (BD Biosciences). Cell-cycle fractions were determined by Hoechst nuclear staining. Briefly, cells were harvested, washed in PBS, incubated with annexin V-FITC and Hoechst solution for 30 minutes at room temperature. Data were collected using a FACSCalibur flow cytometer (BD Biosciences) and analyzed with FlowJo Version 7.5.5 obtainable from FlowJo, LLC. Results represent the mean value of 3 independent experiments.

[5] = Weight of xenografted NSG mice after EDO-S101; format: in vivo
Method: (§2) Two independent experiments were performed to investigate the dose-effect of EDO-S101 in NSG mice eight weeks after xenografting with L428 cells as in Example 8. The aim of the protocol shown in FIG. 8B was to evaluate the effect of sequential treatment with a moderate dose of 60 mg/kg given at an interval of three weeks.
This weight loss was also observed in mice treated with the vehicle. In contrast, the weight of the control mice receiving only freshly prepared phosphate buffered saline (PBS) buffered to 7.3-7.4 increased up to 11 weeks and then started to decrease.
The toxicity of the dose of 80 mg/kg compared to 60 mg/kg was investigated, as compared to the control groups vehicle and PBS.

[6] = test system: L428 cells; experiment: Orbital tumour mass at injection site in xenografted NSG mice; format: in vivo; conditions: after EDO-S101 injection
From the text: Immunodeficient NOD-SCID-gammac−/− (NSG) mice aged 5 to 6 weeks were purchased from Charles River (NOD.Cg-Prkdcscid II2rgtm1Wjl/SzJ). The mice arrived two weeks before the beginning of the experiments and were housed in micro-isolator cages during the entire course of the study. Immediately prior to the injection of Hodgkin lymphoma cells, mice were exposed to 3 Gy gamma irradiation using an IBL637 ^137Cs irradiator at a dose rate of 0.61 Gy/min. From 10^3 to 10^6 cells, either from the original cell lines or following amplification, were injected intravenously via the retro-orbital sinus. The mice were sacrificed by cervical dislocation and different organs were analysed and tumoural infiltration examined using multiple techniques.
as §2
Some mice developed an orbital tumour mass at the site of the injection. […] In one mouse only that was treated with two doses of 60 mg/kg of EDO-S101, a regression of the orbital tumour was initially observed followed by re-establishment of the orbital mass 3 weeks later. […]

[7] = test system: CD14 cells; experiment: CD14-positive cells by flow cytometry in xenografted NSG mice; format: in vivo
Method: Cells were gated to exclude apoptotic or necrotic cells and sorted into CD30−/CD15− and CD30+ and CD15+/CD30+ fractions by gating on the lowest and highest 5% PE-expressing cells, respectively. Following sorting, the CD30−/CD15− cell fractions were analyzed using a FACScan flow cytometer (Becton Dickinson) and found to be more than 98% pure. For phenotypic analyses of cell lines or sorted cells, cells were prepared as described, and then stained with mouse anti-human CD30-phycoerthrin (PE), CD15—fluorescein isothyocyanate (FITC), CD14-APC-cyanine 7 (Cy7) and CD45-APC (all antibodies from BD PharMingen, San Diego, CA). […] Cells were subsequently analysed using a FACS LSRII (Becton Dickinson, Franklin Lakes, NJ). […]
Novel biomarkers CD68 and CD14 which are expressed by tumour associated macrophages and myeloid derived suppressor cells respectively in the microenvironment have recently been reported to affect the prognosis of Hodgkin lymphoma (Haematologica, 2011 February; 96(2): 186-189). The presence of the CD14-positive cells following administration of a single dose of EDO-S101 (60 mg/kg or 80 mg/kg) and after two administrations of EDO-S101 at 60 mg/kg was evaluated using flow cytometry with anti CD14 antibodies.

[8] = test system: L1236; experiment: Cell cycle checkpoint proteins and gene expression, L1236; format: cell-based, human; conditions: naïve L1236; EDO-S101 alone

SMILES: Cn1c(CCCCCCC(=O)NO)nc2cc(N(CCCl)CCCl)ccc21 [EDO-S101]
- metaphases observed ([1]; 10 μmol): only a few metaphases of poor quality
- metaphases observed ([1]; 20 μmol, any cell line): No metaphases were observed
- sensitivity in mitotic index assay ([1]; all Hodgkin lymphoma cell lines, 24 h of treatment): remarkably high sensitivity
- viable cells ([2]; R100, 48 hours after treatment with 50 μM): no viable cells
- anti-proliferative activity compared with vorinostat ([2]; bendamustine-resistant cell line R100): greater than that of vorinostat
- IC50 [3]: 1000 to 3000 nM
- sensitivity for apoptosis [4]: higher sensitivity
- weight loss, 60 mg/kg versus 80 mg/kg ([5]; single dose 60 mg/kg or 80 mg/kg): no significant difference
- weight of the mice or the different organs ([5]; treated versus untreated mice): No significant difference
- weight of mice ([5]; two doses of 60 mg/kg three weeks apart): weight loss following each administration which was regained after several weeks
- orbital tumour mass at site of injection [6]: signification regression
- frequency of CD14 cells, untreated versus treated mice ([7]; 60 mg/kg, 80 mg/kg, 2×60 mg/kg): significantly higher frequency of CD14 cells in untreated mice compared to treated mice
- frequency of CD14 cells, 2×60 mg/kg versus 80 mg/kg ([7]; mouse, in vivo): higher frequency following treatment with 2×60 mg/kg than treatment with a single dose of 80 mg/kg
- cell cycle checkpoint proteins, cellular and gene expression changes [8]: activated cell cycle checkpoint proteins and induced cellular and gene expression changes compatible with the triggering of apoptosis
